molecular target: T1, Somatostatin Receptor 2 (SSTR2) (Homo sapiens, UniProt P30874); experiment: Biochemical Assay for Activation of Somatostatin Receptor 2 (SSTR2), Cisbio HTRF cAMP assay; assay type: cell-based; details: average pEC50; HTRF cAMP assay in stably-transfected cell line expressing SSTR2; cells incubated with compounds for 1-2h
T1 construct: expressed in transfected cells
Description: Biochemical Assay for Activation of Somatostatin Receptor 2 (SSTR2)
Agonistic activation of SSTRs leads to an […] production of intracellular cAMP levels. Cisbio's homogeneous time-resolved fluorescence (HTRF) cAMP assay was used to measure cAMP concentration in an high-throughput format. Increase in intracellular cAMP concentrations was measuring using a stably-transfected cell line expressing SSTR2. Test compounds were dissolved in DMSO. Cells were incubated with compounds for 1-2h, and subsequently competitive binding of cAMP produced due to the activation of SSTR2 by the test compounds was measured using the Cisbio cAMP Gs dynamic assay system (Perkin Elmer, Bedford, MA).
The average pEC50 was determined for the test compounds.

T1 sequence (P30874 whole entry, species assumed): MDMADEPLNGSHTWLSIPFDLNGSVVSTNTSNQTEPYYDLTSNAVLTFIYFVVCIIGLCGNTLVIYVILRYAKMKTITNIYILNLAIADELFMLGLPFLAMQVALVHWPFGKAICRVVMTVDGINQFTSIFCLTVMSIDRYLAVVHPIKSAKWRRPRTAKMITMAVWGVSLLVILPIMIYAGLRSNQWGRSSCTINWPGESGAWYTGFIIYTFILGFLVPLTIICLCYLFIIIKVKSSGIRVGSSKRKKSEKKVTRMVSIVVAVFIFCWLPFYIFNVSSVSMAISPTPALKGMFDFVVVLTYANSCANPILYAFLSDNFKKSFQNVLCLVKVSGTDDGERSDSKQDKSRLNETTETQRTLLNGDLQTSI

EC50 | SMILES
501 nM | NC1CCN(c2c(-c3cc(F)cc(F)c3)cnc3ccc(C4=CC=CN5CCNC(=O)C45O)cc23)CC1 (stereo not drawn) [Compound 158]
> 10000 nM | N#Cc1cccc(-c2ccc3ncc(-c4cc(F)cc(F)c4)c(-c4ccc(N)cc4)c3c2)c1O [Compound 122, 3-(4-(4-aminophenyl)-3-(3,5-difluorophenyl)quinolin-6-yl)-2-hydroxy benzonitrile]
12.6 nM | Nc1nc(Cl)ccc1C(=O)Nc1cncc(-c2ccccc2)c1N1CCC(N)CC1 [Compound 165]
631 nM | CC(N)CCN1CCc2c(-c3cc(F)cc(F)c3)ccc3ncc(-c4cc(F)cc(F)c4)c1c23 (stereo not drawn) [Compound 155]
> 10000 nM | O=C1NCCNC2CCN(CC2)c2c(-c3cc(F)cc(F)c3)cnc3ccc(cc23)-c2cccnc21 [Compound 79, 2^3-(3,5-difluorophenyl)-4,7-diaza-2(6,4)-quinolina-1(3,2)-pyridina-3(1,4)-piperidinacyclooctaphan-8-one]
2510 nM | O=C1NCCNC2CCN(CC2)c2c(-c3cc(F)cc(F)c3)cnc3ccc(cc23)-c2cccc1n2 [Compound 78, 23-(3,5-difluorophenyl)-4,7-diaza-2(6,4)-quinolina-1(2,6)-pyridina-3(1.4)-piperidina-cyclooctaphan-8-one]
> 5010 nM | COCOc1c(C#N)cccc1-c1ccc2ncc(-c3cc(F)cc(F)c3)c(N3CC4(CN(C(C)=O)C4)C3)c2c1 [Compound 139]
126 nM | NCCCN1Cc2ccc(F)cc2-c2cncc(-c3nc4cc(F)c(F)cc4[nH]3)c21 [Compound 108]
6310 nM | COCOc1c(C#N)cccc1-c1ccc2ncc(-c3cc(F)cc(F)c3)c(N3CC4(CNC4)C3)c2c1 [Compound 138]
> 10000 nM | COCOc1c(C#N)cccc1-c1ccc2ncc(-c3cc(F)cc(F)c3)c(O[C@H]3CC[C@@H](NC(=O)OC(C)(C)C)C3)c2c1 [Compound 140]
> 10000 nM | COCOc1c(C#N)cccc1-c1ccc2ncc(-c3cc(F)cc(F)c3)c(OC3CCCC(NC(=O)OC(C)(C)C)C3)c2c1 (stereo not drawn) [Compound 141]
25.1 nM | CN1CCCCNC2CCN(CC2)c2c(-c3cc(F)cc(F)c3)cnc3ccc(cc23)-c2cccc(n2)C1=O [Compound 82, 24-(3,5-difluorophenyl)-11-methyl-2,6,11,22,27-pentaazapentacyclo[16.6.2.2^2,^5.1^13,^17.0^21,^25]nonacosa-1(24),13(27),14,16,18(26),19,21(25),22-octaen-12-one]
0.0398 nM | CCOC(=O)c1cc(-c2cc(F)cc(F)c2)cc2c(N3CCC(N)CC3)c(-c3cc(F)cc(F)c3)cnc12 [Compound 147]
> 10000 nM | N#Cc1cccc(-c2ccc3ncc(-c4cc(F)cc(F)c4)c(N4CC5(CNC5)C4)c3c2)c1O [Compound 137]
6310 nM | Cc1cc(F)cc(-c2cnc3ccc4cc3c2N2CCC(CC2)NCCCNC(=O)c2ccccc2-4)c1 [Compound 86]
0.0794 nM | Cc1cc(F)cc(-c2cnc3ccc4cc3c2N2CCC(CC2)NCCCCOc2ccccc2-4)c1 [Compound 76]
> 10000 nM | N#Cc1cccc(-c2cc3ncc(-c4cc(F)cc(F)c4)c(N4CCC(N)CC4)c3s2)c1O [Compound 132]
1260 nM | Cc1cc(C)cc(-c2cnc3c(c2N2CC[C@H](N)C2)C(=O)N(c2cc(C)cc(C)c2)CC3)c1 [Compound 116]
100 nM | COc1cc(F)cc(-c2cnc3cc(-c4ccc5[nH]c(=O)[nH]c5c4)oc3c2N2CCC(N)CC2)c1 [Compound 130]
316 nM | Cc1cc(F)cc(-c2cnc3ccc4cc3c2N2CCC(CC2)NCC[C@@H](N)COc2c(C#N)cccc2-4)c1 (single isomer, unassigned) [Compound 98]

Further lines, the compound ahead of its results:

SMILES | EC50
COc1cc(F)cc(-c2cnc3[nH]c(-c4cc(F)cc(C(N)=O)c4)nc3c2N2CC[C@@H](N)[C@H](OC)C2)c1 [Compound 50] | > 10000 nM
NC1CC(Oc2c(-c3cc(F)cc(F)c3)cnc3ccc(-c4cc(F)cc(F)c4)cc23)C1 (stereo not drawn) [Compound 17] | 12.6 nM
Cn1c(-c2cccc(Br)c2O)nc2c(N3CCC(N)CC3)c(-c3cc(F)cc(F)c3)cnc21 [Compound 41] | 158 nM
NCC1CCCCC1Oc1c(-c2cc(F)cc(F)c2)cnc2ccc(-c3cc(F)cc(F)c3)cc12 (stereo not drawn) [Compound 20] | 3980 nM
CO[C@@H]1CN(c2c(-c3cc(F)cc(F)c3)cnc3[nH]c(-c4ccc5[nH]c(=O)[nH]c5c4)nc23)CC[C@H]1N [Compound 46, 5-(7-((3R,4R)-4-amino-3-methoxypiperidin-1-yl)-6-(3,5-difluorophenyl)-3H-imidazo[4,5-b]pyridin-2-yl)-1,3-dihydro-2H-benzo[d]imidazol-2-one] | > 10000 nM
Cc1cc(F)cc(-c2cnc3ccc4cc3c2N2CCC(CC2)NCCCCOc2c(C(N)=O)cccc2-4)c1 [Compound 74] | 0.251 nM
NC1CCN(c2c(-c3cc(F)cc(F)c3)cnc3nc(-c4cccc(Br)c4O)[nH]c23)CC1 [Compound 64] | 31.6 nM
NC(=O)c1cc(F)cc(-c2nc3c(N4CCC(N)CC4)c(-c4cc(F)cc(F)c4)cnc3[nH]2)c1 [Compound 65] | 3160 nM
Cn1c(-c2cccc(C#N)c2O)nc2c(N3CCC(N)CC3)c(-c3cc(F)cc(F)c3)cnc21 [Compound 43] | 6310 nM
Cn1c(-c2ccc3[nH]c(=O)[nH]c3c2)nc2c(N3CCC(N)CC3)c(-c3cc(F)cc(F)c3)cnc21 [Compound 39] | > 10000 nM
CO[C@@H]1CN(c2c(-c3cc(F)cc(F)c3)cnc3[nH]c(-c4cc(F)cc(C(N)=O)c4)nc23)CC[C@H]1N [Compound 47] | 1000 nM
Cn1c(-c2cccc(Br)c2O)nc2c(N3CCC(NC(=O)OC(C)(C)C)CC3)c(-c3cc(F)cc(F)c3)cnc21 [Compound 40] | > 10000 nM
CO[C@@H]1CN(c2c(-c3cc(C)cc(F)c3)cnc3[nH]c(-c4cccc(C#N)c4O)nc23)CC[C@H]1N [Compound 54] | 2510 nM
Cc1cc(F)cc(-c2cnc3c(nc(-c4ccc5[nH]c(=O)[nH]c5c4)n3C)c2N2CCC(N)CC2)c1 [Compound 36] | > 10000 nM
CO[C@@H]1CN(c2c(-c3cc(C)cc(F)c3)cnc3c2nc(-c2ccc4[nH]c(=O)[nH]c4c2)n3C)CC[C@H]1N [Compound 27] | > 10000 nM
Cn1c(-c2cc(F)cc(C(N)=O)c2)nc2c(N3CCC(N)CC3)c(-c3cc(F)cc(F)c3)cnc21 [Compound 38] | 2000 nM
Cc1cc(F)cc(-c2cnc3ccc(-c4ccc5[nH]c(=O)[nH]c5c4)cc3c2O[C@@H]2CC[C@H](N)C2)c1 [Compound 8] | 6.31 nM
COc1cc(F)cc(-c2cnc3ccc(-c4ccc5[nH]c(=O)[nH]c5c4)cc3c2O[C@@H]2CC[C@H](N)C2)c1 [Compound 6] | 63.1 nM
Cc1cc(F)cc(-c2cnc3[nH]c(-c4cc(F)cc(C(N)=O)c4)nc3c2N2CCC(N)CC2)c1 [Compound 61] | 50.1 nM

From patent publication US20260053794A1, “SOMATOSTATIN RECEPTOR 2 AGONISTS AND USES THEREOF” (Exelixis, Inc., priority 2022, published 2026)
